Experimental data: patent US7880007B2, “Bicyclic substituted phenyl piperidine modulators of muscarinic receptors” (Vertex Pharmaceuticals Incorporated, priority 2004, dated 2011)

Tests used:
Assay type in all cases: cell-based
M1 muscarinic receptor = biological target: T1, M1 muscarinic receptor (Homo sapiens, UniProt P11229); test: Functional mobilization of intracellular calcium (FLIPR), M1-CHO cells; settings: for M1 Activity: M1-CHO cells, calcium mobilization (FLIPR)
T1 construct: expressed in transfected cells; host or cells: CHO (M1-CHO)
T1 sequence (P11229 1-460): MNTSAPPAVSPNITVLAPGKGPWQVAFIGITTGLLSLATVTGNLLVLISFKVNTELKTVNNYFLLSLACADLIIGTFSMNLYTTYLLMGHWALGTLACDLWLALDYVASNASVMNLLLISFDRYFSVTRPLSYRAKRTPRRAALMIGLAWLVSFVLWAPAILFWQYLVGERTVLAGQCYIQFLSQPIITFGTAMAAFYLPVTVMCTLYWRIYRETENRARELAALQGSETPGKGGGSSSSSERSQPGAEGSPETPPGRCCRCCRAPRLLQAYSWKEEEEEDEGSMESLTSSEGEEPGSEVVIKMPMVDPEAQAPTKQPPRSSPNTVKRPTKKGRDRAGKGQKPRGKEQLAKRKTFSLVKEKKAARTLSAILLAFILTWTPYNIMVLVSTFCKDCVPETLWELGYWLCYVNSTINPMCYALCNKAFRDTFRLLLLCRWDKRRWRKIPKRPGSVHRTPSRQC
How it was run: (§1)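 Calcium mobilisation read by FLIPR over 60 s (ex 488/em 540 nm) in recombinant muscarinic CHO lines loaded with calcium dye plus 1 mM probenecid. Compounds tested as agonists alone, or as inhibitors against EC80 carbachol after 15 min pre-incubation or co-addition; 0.5% DMSO; efficacy scaled to carbachol maximal response.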

M2 muscarinic receptor = biological target: T2, M2 muscarinic receptor (Homo sapiens, UniProt P08172); test: Functional mobilization of intracellular calcium (FLIPR), M2-CHO cells; settings: for M2 Activity: M2-CHO cells, calcium mobilization (FLIPR)
T2 construct: expressed in transfected cells; host or cells: CHO (M2-CHO)
T2 sequence (P08172 1-466): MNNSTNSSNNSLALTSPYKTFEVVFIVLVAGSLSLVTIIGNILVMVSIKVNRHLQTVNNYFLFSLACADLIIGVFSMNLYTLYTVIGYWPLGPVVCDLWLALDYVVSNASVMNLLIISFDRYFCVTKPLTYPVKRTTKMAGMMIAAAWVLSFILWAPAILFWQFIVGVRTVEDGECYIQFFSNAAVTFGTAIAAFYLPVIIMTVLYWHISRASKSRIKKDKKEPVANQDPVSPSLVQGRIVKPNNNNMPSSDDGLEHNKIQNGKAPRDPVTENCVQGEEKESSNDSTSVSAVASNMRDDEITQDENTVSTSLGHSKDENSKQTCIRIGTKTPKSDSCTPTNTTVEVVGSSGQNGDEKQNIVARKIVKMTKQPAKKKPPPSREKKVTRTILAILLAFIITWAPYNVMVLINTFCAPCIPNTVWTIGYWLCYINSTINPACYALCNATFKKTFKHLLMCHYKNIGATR
How it was run: as §1

M3 muscarinic receptor = biological target: T3, M3 muscarinic receptor (Homo sapiens, UniProt P20309); test: Functional mobilization of intracellular calcium (FLIPR), M3-CHO cells; settings: for M3 Activity: M3-CHO cells, calcium mobilization (FLIPR)
T3 construct: expressed in transfected cells; host or cells: CHO (M3-CHO)
T3 sequence (P20309 whole entry): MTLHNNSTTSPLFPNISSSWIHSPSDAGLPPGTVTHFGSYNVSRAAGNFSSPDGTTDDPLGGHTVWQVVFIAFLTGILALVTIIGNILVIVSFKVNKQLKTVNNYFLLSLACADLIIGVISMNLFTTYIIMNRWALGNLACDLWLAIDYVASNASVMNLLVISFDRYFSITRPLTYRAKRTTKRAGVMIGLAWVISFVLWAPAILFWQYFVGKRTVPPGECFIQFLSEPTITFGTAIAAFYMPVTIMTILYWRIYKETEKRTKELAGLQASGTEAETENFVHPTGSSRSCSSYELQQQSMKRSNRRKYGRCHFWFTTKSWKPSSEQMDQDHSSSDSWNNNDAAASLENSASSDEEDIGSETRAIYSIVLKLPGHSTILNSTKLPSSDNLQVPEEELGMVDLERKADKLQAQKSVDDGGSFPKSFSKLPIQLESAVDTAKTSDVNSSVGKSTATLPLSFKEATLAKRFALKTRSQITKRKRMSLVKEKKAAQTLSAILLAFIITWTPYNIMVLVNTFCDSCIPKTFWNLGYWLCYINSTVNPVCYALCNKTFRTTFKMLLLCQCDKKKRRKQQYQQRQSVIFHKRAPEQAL
How it was run: as §1

M4 muscarinic receptor = biological target: T4, M4 muscarinic receptor (Homo sapiens, UniProt P08173); test: Functional mobilization of intracellular calcium (FLIPR), M4-CHO cells; settings: for M4 Activity: M4-CHO cells, calcium mobilization (FLIPR)
T4 construct: expressed in transfected cells; host or cells: CHO (M4-CHO)
T4 sequence (P08173 1-479): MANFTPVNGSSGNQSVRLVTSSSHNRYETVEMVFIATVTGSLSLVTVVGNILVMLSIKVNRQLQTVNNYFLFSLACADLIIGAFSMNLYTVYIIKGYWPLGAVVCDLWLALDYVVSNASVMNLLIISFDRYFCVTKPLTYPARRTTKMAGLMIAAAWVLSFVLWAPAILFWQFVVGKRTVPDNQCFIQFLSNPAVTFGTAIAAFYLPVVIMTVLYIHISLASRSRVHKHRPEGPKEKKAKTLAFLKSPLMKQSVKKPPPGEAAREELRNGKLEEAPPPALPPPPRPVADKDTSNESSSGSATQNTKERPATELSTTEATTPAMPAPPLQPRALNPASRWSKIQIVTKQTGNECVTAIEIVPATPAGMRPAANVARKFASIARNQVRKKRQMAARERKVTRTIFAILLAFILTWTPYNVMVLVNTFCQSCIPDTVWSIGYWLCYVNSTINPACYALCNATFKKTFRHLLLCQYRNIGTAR
How it was run: as §1

[1] = 100% efficacy is the maximum response obtained with the Carbachol control

Emax (M1 muscarinic receptor; [1]) [%] | Emax (M2 muscarinic receptor; [1]) [%] | Emax (M3 muscarinic receptor; [1]) [%] | Emax (M4 muscarinic receptor; [1]) [%] | Structure (SMILES) | M1 Activity (M1 muscarinic receptor) | M2 Activity (M2 muscarinic receptor) | M3 Activity (M3 muscarinic receptor) | M4 Activity (M4 muscarinic receptor) | M1 Efficacy (M1 muscarinic receptor; [1]) | M2 Efficacy (M2 muscarinic receptor; [1]) | M3 Efficacy (M3 muscarinic receptor; [1]) | M4 Efficacy (M4 muscarinic receptor; [1])
< 25 | < 25 | < 25 | 25 to 100 | CNC(=O)c1ccc(-c2ccc(OC)c(C3CCN([C@H]4C[C@H]5CC[C@H]4C5)CC3)c2)cc1 [Compound 388] | + (activity was measured to be greater than 5.0 μM) | + (activity was measured to be greater than 5.0 μM) | + (activity was measured to be greater than 5.0 μM) | +++ (activity was measured to be less than 1.0 μM) |  |  |  | 
< 25 | < 25 | < 25 | < 25 | COc1ccc(-c2ccc(C(=O)Nc3nccs3)cc2)cc1C1CCN(C2CCOCC2)CC1 [Compound 389] | + (activity was measured to be greater than 5.0 μM) | + (activity was measured to be greater than 5.0 μM) | + (activity was measured to be greater than 5.0 μM) | + (activity was measured to be greater than 5.0 μM) |  |  |  | 
< 25 | < 25 | < 25 | < 25 | O=C(NCc1cccc(C2CCN(C3C[C@H]4CC[C@H]3C4)CC2)c1)C1CC1 (stereo partly shown) [Compound 391] | + (activity was measured to be greater than 5.0 μM) | + (activity was measured to be greater than 5.0 μM) | + (activity was measured to be greater than 5.0 μM) | + (activity was measured to be greater than 5.0 μM) |  |  |  | 
25 to 100 | 25 to 100 | 25 to 100 | 25 to 100 | CCOC(=O)N1CCC(N2CCC(c3cc(Cl)ccc3OC)CC2)CC1 [Compound 392] | +++ (activity was measured to be less than 1.0 μM) | +++ (activity was measured to be less than 1.0 μM) | +++ (activity was measured to be less than 1.0 μM) | +++ (activity was measured to be less than 1.0 μM) |  |  |  | 
< 25 | < 25 | < 25 | 25 to 100 | COc1ccc(-c2ccc(OC)c(C3CCN([C@@H]4C[C@H]5CC[C@H]4C5)CC3)c2)cc1 [Compound 393] | + (activity was measured to be greater than 5.0 μM) | + (activity was measured to be greater than 5.0 μM) | + (activity was measured to be greater than 5.0 μM) | + (activity was measured to be greater than 5.0 μM) |  |  |  | 
< 25 | < 25 | < 25 | 25 to 100 | Clc1cccc(-c2ccccc2C2CCN([C@H]3C[C@H]4CC[C@H]3C4)CC2)c1 [Compound 395] | + (activity was measured to be greater than 5.0 μM) | + (activity was measured to be greater than 5.0 μM) | + (activity was measured to be greater than 5.0 μM) | + (activity was measured to be greater than 5.0 μM) |  |  |  | 
 |  |  |  | COc1ccc(Cl)cc1C1CCN(C2CCC(=NOCc3ccccc3)CC2)CC1 (stereo not shown) [Compound 396] | + (activity was measured to be greater than 5.0 μM) | + (activity was measured to be greater than 5.0 μM) | + (activity was measured to be greater than 5.0 μM) | +++ (activity was measured to be less than 1.0 μM) | ++ (efficacy was calculated to be from 100% to 25%) | + (efficacy was calculated to be less than 25%) | + (efficacy was calculated to be less than 25%) | ++ (efficacy was calculated to be from 100% to 25%)
25 to 100 | < 25 | < 25 | 25 to 100 | COc1ccccc1C1CCN(C2CCCC(C)C2)CC1 (stereo not shown) [Compound 398] | + (activity was measured to be greater than 5.0 μM) | + (activity was measured to be greater than 5.0 μM) | + (activity was measured to be greater than 5.0 μM) | +++ (activity was measured to be less than 1.0 μM) |  |  |  | 
< 25 | < 25 | < 25 | 25 to 100 | COc1ccc(-c2ccc(CC#N)cc2)cc1C1CCN(C2CCCCC2)CC1 [Compound 399] | + (activity was measured to be greater than 5.0 μM) | + (activity was measured to be greater than 5.0 μM) | + (activity was measured to be greater than 5.0 μM) | ++ (activity was measured to be from 1.0 μM to 5.0 μM) |  |  |  | 
< 25 | < 25 | < 25 | < 25 | COc1ccc(-c2ccc(NC(C)=O)cc2)cc1C1CCN([C@H]2C[C@H]3CC[C@H]2C3)CC1 [Compound 400] | + (activity was measured to be greater than 5.0 μM) | + (activity was measured to be greater than 5.0 μM) | + (activity was measured to be greater than 5.0 μM) | + (activity was measured to be greater than 5.0 μM) |  |  |  | 
< 25 | < 25 | < 25 | < 25 | COc1ccc(-c2ccc(C(=O)NC3CC3)cc2)cc1C1CCN([C@H]2C[C@H]3CC[C@H]2C3)CC1 [Compound 401] | + (activity was measured to be greater than 5.0 μM) | + (activity was measured to be greater than 5.0 μM) | + (activity was measured to be greater than 5.0 μM) | + (activity was measured to be greater than 5.0 μM) |  |  |  | 

Structure (SMILES) | Emax (M1 muscarinic receptor; [1]) [%] | Emax (M2 muscarinic receptor; [1]) [%] | Emax (M3 muscarinic receptor; [1]) [%] | Emax (M4 muscarinic receptor; [1]) [%] | M1 Activity (M1 muscarinic receptor) | M2 Activity (M2 muscarinic receptor) | M3 Activity (M3 muscarinic receptor) | M4 Activity (M4 muscarinic receptor) | M1 Efficacy (M1 muscarinic receptor; [1]) | M2 Efficacy (M2 muscarinic receptor; [1]) | M3 Efficacy (M3 muscarinic receptor; [1]) | M4 Efficacy (M4 muscarinic receptor; [1])
CCOC(=O)N1C2CCC1CC(N1CCC(c3cc(-c4ccc5c(c4)OCO5)ccc3OC)CC1)C2 (stereo not shown) [Compound 387] | 25 to 100 | < 25 | < 25 | 25 to 100 | + (activity was measured to be greater than 5.0 μM) | + (activity was measured to be greater than 5.0 μM) | + (activity was measured to be greater than 5.0 μM) | ++ (activity was measured to be from 1.0 μM to 5.0 μM) |  |  |  | 
CCOC(=O)N1C2CCC1CC(N1CCC(OC)(c3cc(Cl)ccc3OC)CC1)C2 (stereo not shown) [Compound 390] | 25 to 100 | < 25 | < 25 | 25 to 100 | +++ (activity was measured to be less than 1.0 μM) | + (activity was measured to be greater than 5.0 μM) | + (activity was measured to be greater than 5.0 μM) | +++ (activity was measured to be less than 1.0 μM) |  |  |  | 
COc1ccc(Cl)cc1C1(O)CCN(C[C@H]2C[C@H]3C=C[C@H]2C3)CC1 [Compound 394] | < 25 | 25 to 100 | < 25 | 25 to 100 | + (activity was measured to be greater than 5.0 μM) | + (activity was measured to be greater than 5.0 μM) | + (activity was measured to be greater than 5.0 μM) | +++ (activity was measured to be less than 1.0 μM) |  |  |  | 
